# Laboratory results: US9708247B2, “Modulators of the eIF2alpha pathway” (The Regents of the University of California, priority 2013, dated 2017)
# Key:
# [1] = test system: mouse embryonic fibroblasts (MEFs); experiment: Polysome gradient analysis in MEFs; assay type: cell-based
# Experimental: (§1) Mouse Embryonic Fibroblasts (MEFs) or TREx-293 cells expressing eIF2α(S51D) were seeded on 150 mm plates and allowed to grow to 80% confluence. Cells were then induced with 25 nM doxycycline for 14 h and subsequently treated with the appropriate compounds for the indicated times. 100 μg/ml of cycloheximide was added to the cells for 1 min before lysis. Cells were washed twice with PBS supplemented with 100 μg/ml cycloheximide and subsequently lysed in 20 mM Tris pH 7.4, 200 mM NaCl, 15 mM MgCl, 1 mM DTT, 8% Glycerol, 100 μg/ml cycloheximide, 1% Triton X-100 and EDTA-free protease inhibitor tablets (Roche). Cells were scraped, collected, triturated with a 25^7/8 gauge needle, and the homogenate was centrifuged for 10 min at 10,000×g. The supernatant was loaded on a 10-50% sucrose gradient and sedimented in a SW40 rotor at 150,000×g for 2.4 h. The gradients were fractionated using a piston gradient fractionator (BioComp) and UV absorbance at 254 nm was monitored using a UV-Monitor (BioRad).
# caspase 3/7 = experiment: Caspase 3/7 activation in Hela cells; assay type: cell-based, human; details: tunicamycin or thapsigargin plus 25 nM ISRIB
# Experimental: FIGS. 5A-5D. […]
# Hela cells were plated in 96 well Corning plates at 0.4×10^4 cells/well 24 hours prior to imaging. […] In order to quantify the total number of cells, Vybrant DyeCycle Green staining solution (1 μM) was added directly to the well immediately after the final Caspase-3/7 scan and incubated for 1 h prior to acquiring final images. Data was analyzed using IncuCyte analysis software.
# eIF2α (S51D) = experiment: Polysome gradient analysis in HEK293Trex cells expressing eIF2α(S51D); assay type: cell-based, human; details: 25 nM doxycycline 14 h, 200 nM ISRIB
# Experimental: as §1, with “The coding sequences of wild type mouse eIF2α, phosphomimetic (S51D) mutant was amplified by PCR from a mammalian expression vector (kind gift of David Ron). BamHI and EcoRI recognition sites were engineered into the primers. In addition a Kozak consensus sequence and a N-terminal FLAG epitope tag were engineered in the forward primer. […]. Mouse” for “Mouse”
compound,measurement,setting,value
O=C(COc1ccc(Cl)cc1)NC1CCC(NC(=O)COc2ccc(Cl)cc2)CC1 (stereo not shown) [ISRIB],translational attenuation by Torin-1 (CAP-dependent initiation),"[1]; 750 nM torin-1, 200 nM ISRIB, 2 h",did not reverse the effect of Torin-1 on translation
same,ER stress-induced increase in 80S monosomes at the expense of polyribosomes,"[1]; 2 μg/ml tunicamycin, 200 nM ISRIB, 1 h",reversed (at least partially)
same,activity of caspases 3 and/or 7,caspase 3/7,significantly induced
same,translational attenuation by eIF2α(S51D) expression,eIF2α (S51D),rescued translation
